Reference: patent US20050020576A1, “Kappa agonist compounds and pharmaceutical formulations thereof” (priority 1996, published 2005)
Where a name gives a salt, the structure may show the parent alone.

Row | SMILES | melting point
1 | COC(=O)CNC(=O)c1ccccc1CC(=O)N(C)[C@H](CN1CCCC1)c1ccccc1 (as salt: hydrochloride) [Example 3mm, Methyl N-[2-(2-pheny)-N-methyl-N-{[1S]-1-phenyl-2-(1-pyrrolidinyl)ethyl}acetamido]2-oxo-glycinate hydrochloride] | 204 to 206 °C
2 | CN(C(=O)Cc1ccccc1NS(C)(=O)=O)[C@H](CN1CCCC1)c1cccc(NS(C)(=O)=O)c1 (as salt: hydrochloride) [Example 3pp, 2-(2-Methanesulfonamidophenyl)-N-methyl-N-[(1S)-1-(3-methanesulfon-amidophenyl)-2-(1-pyrrolidinyl)ethyl]acetamide Hydrochloride] | 160 °C (dec.)
3 | COc1cc(CC(=O)N(C)[C@H](CN2CCCC2)c2ccccc2)c(S(=O)(=O)N(C)Cc2ccccc2)cc1OC (as salt: hydrochloride) [Example 3xx, 2-(2-N-Benzyl-2-N-methylsulfamoyl-3,4-dimethoxyphenyl)-N-methyl-N-[(1S)-1-phenyl-2-(1-pyrrolidinyl)ethyl]acetamide hydrochloride] | 188 to 190 °C
4 | CCOC(=O)/C=C/C(=O)Nc1cc(Cl)c(Cl)cc1CC(=O)N(C)[C@H](CN1CCCC1)c1ccccc1 (as salt: hydrochloride) [Example 3y, (E) Ethyl 4-[2-(2-amino-4,5-dichlorophenyl)-N-methyl-N-[(1S)-1-phenyl)-2-[1-pyrrolidinyl]ethyl]acetamido]4-oxo-2-butenoate hydrochloride] | 165 to 167 °C (dec.)
5 | COc1ccc(CC(=O)N(C)[C@H](CN2CCCC2)c2ccccc2)cc1NS(C)(=O)=O (as salt: methane sulfonate) [Example 122, 2-(3-N-Methylsulfonamido-3-amino-4-methoxyphenyl)-N-methyl-N-[(1S)-1-phenyl-2-(1-pyrrolidinyl)ethyl]acetamide methane sulfonate] | 149 to 151 °C
6 | CN(C(=O)Cc1ccc(O)c(N(S(C)(=O)=O)S(C)(=O)=O)c1)[C@H](CN1CCCC1)c1ccccc1 (as salt: salt) [Example 130, 2-(3-N-Bis-methylsulfonamido-3-amino-4-hydroxyphenyl)-N-methyl-N-[(1S)-1-phenyl-2-(1-pyrrolidinyl)ethyl]acetamide] | 197 to 199 °C
7 | CN(C(=O)Cc1cc2c(cc1S(=O)(=O)N(C)Cc1ccccc1)OCO2)[C@H](CN1CCCC1)c1ccccc1 (as salt: salt) [Example 131, 2-[2-(N-Benzyl-N-methylsulfamoyl)-4,5-methylenedioxyphenyl]-N-methyl-N-[(1S)-1-phenyl-2-[(1-pyrrolidinyl)ethyl]]acetamide] | 236 to 238 °C
8 | COc1cc(CC(=O)N(C)[C@H](CN2CC[C@H](O)C2)c2ccccc2)c(S(=O)(=O)N2CCCC2)cc1OC (as salt: salt) [Example 135, 2-[2-(N-Pyrrolidinesulfamoyl)-4,5-dimethoxyphenyl]-N-methyl-N-[(1S)-1-phenyl-2-[1-(3S)-(3-hydroxypyrrolidinyl)ethyl]]acetamide] | > 120 °C (dec.)
9 | CC(C)C(=O)Nc1cccc([C@@H](CN2CCCC2)N(C)C(=O)Cc2ccccc2NC(=O)C(C)C)c1 (as salt: sulfonic acid salt) [Example 3qq, 2-(2-Iso-butyramidophenyl)-N-methyl-N-[(1S)-1-(3-isobutyramido-phenyl)-2-(1-pyrrolidinyl)ethyl]acetamide Methanesulfonic acid salt] | 143 to 145 °C
10 | CN(C(=O)Cc1cc(Cl)c(Cl)cc1NC(=O)/C=C\C(=O)O)[C@H]1CCCC[C@@H]1N1CCCC1 (racemic) | 246 to 248 °C (dec.)
11 | CNS(=O)(=O)c1cccc(CC(=O)N(C)[C@@H]2CCCC[C@H]2N2CCCC2)c1OC.Cl (racemic) | 168 to 170 °C
12 | CN(C(=O)Cc1ccccc1NS(C)(=O)=O)[C@@H]1CCCC[C@H]1N1CCCC1.Cl (racemic) | 229 to 231 °C
13 | CN(C(=O)Cc1ccc(S(C)(=O)=O)cc1)[C@@H]1CCCC[C@H]1N1CCCC1.Cl (racemic) | 152 to 154 °C (dec.)
14 | COc1cc2c(cc1S(=O)(=O)N(C)Cc1ccccc1)[C@@H](N(C)C(=O)Cc1ccc(Cl)c(Cl)c1)[C@H](N1CCCC1)CC2 (racemic) (as salt: HCl) | 150 °C (dec.)
15 | CN(C(=O)Cc1ccc(Cl)c(Cl)c1)[C@@H]1c2cc(S(=O)(=O)N(C)Cc3ccccc3)ccc2CC[C@H]1N1CCCC1 (racemic) (as salt: HCl) | 251 to 254 °C
16 | CN(C(=O)Cc1cc(Cl)c(Cl)cc1[N+](=O)[O-])[C@@H]1c2ccccc2C[C@H]1N1CCCC1 (racemic) (as salt: HCl) | 284 to 287 °C
17 | CN(C(=O)Cc1ccc(C(F)(F)F)cc1[N+](=O)[O-])[C@@H]1c2ccccc2C[C@H]1N1CCCC1 (racemic) (as salt: HCl) | 249 to 250 °C
18 | CN(C(=O)C(c1ccccc1)c1ccccc1)[C@@H]1c2ccccc2C[C@H]1N1CCCC1 (racemic) (as salt: HCl) | > 300 °C
19 | CN(C(=O)Cc1ccc(S(C)(=O)=O)cc1)[C@@H]1c2ccccc2C[C@H]1N1CCCC1 (racemic) (as salt: HCl) | 246 to 248 °C
20 | CN(C(=O)C(c1ccccc1)c1ccccc1)C1CCCCC1N1CCCC1 (racemic) (as salt: HCl) [Example 5s, (±)-trans-N-Methyl-N-[2-(1-pyrrolidinyl)cyclohexyl]2,2-dphenylacetamide Hydrochloride] | 295 to 297 °C (dec.)
21 | CS(=O)(=O)c1ccc(CC(=O)N2CCN(S(C)(=O)=O)CC2CN2CCCC2)cc1 (racemic) (as salt: hydrochloride) [(R,S-8b), (R,S)-4-Methanesulfonyl-1-[(4-methylsulfonylphenyl)acetyl]-2-[(1-pyrrolidinyl)-methyl]piperazine hydrochloride] | 185 to 188 °C
22 | CS(=O)(=O)N1CCN(C(=O)Cc2c[nH]c3ccccc23)C(CN2CCCC2)C1 (racemic) (as salt: hydrochloride) [(R,S-8e), (R,S)-4-Methanesulfonyl-1-[(3-indolylacetyl-2-[(1-pyrrolidinyl)-methyl]piperazine hydrochloride] | 219 to 221 °C
23 | COC(=O)N1CCN(C(=O)Cc2ccc(S(C)(=O)=O)cc2)C(CN2CCCC2)C1 (racemic) (as salt: hydrochloride) [(R,S-9a), (R,S)-Methyl 4-[(4-methylsulfonylphenyl)acetyl]-3-[(1-pyrrolidinyl)-methyl]-1-piperazinecarboxylate hydrochloride] | 225 °C
24 | COC(=O)N1CCN(C(=O)Cc2ccc(C(F)(F)F)cc2)C(CN2CCCC2)C1 (racemic) (as salt: hydrochloride) [(R,S-9b), (R,S)-Methyl 4-[(4-trifluoromethylphenyl)acetyl]-3-[(1-pyrrolidinyl)-methyl]-1-piperazinecarboxylate hydrochloride] | 210 °C
25 | COC(=O)N1CCN(C(=O)Cc2c[nH]c3ccccc23)C(CN2CCCC2)C1 (racemic) (as salt: hydrochloride) [(R,S-9c), (R,S)-Methyl 4-[(3-indolyl)acetyl]-3-[(1-pyrrolidinyl)-methyl]-1-piperazine-carboxylate hydrochloride] | 143 °C
